Here are results for 7 molecules from patent US4933359A, “4(5)-substituted imidazole derivatives as α2 -adrenergic receptor blockers” (Farmos-Yhtyma Oy, priority 1986, dated 1990).

The structures appear in SMILES notation.

In assay [1] the target is T1, α2-receptors (mouse vas deferens) (Mus musculus, UniProt Q01338).
T1 construct: isolated, electrically stimulated mouse vas deferens preparation; from tissue; host or cells: mouse vas deferens
T1 sequence (Q01338 1-465): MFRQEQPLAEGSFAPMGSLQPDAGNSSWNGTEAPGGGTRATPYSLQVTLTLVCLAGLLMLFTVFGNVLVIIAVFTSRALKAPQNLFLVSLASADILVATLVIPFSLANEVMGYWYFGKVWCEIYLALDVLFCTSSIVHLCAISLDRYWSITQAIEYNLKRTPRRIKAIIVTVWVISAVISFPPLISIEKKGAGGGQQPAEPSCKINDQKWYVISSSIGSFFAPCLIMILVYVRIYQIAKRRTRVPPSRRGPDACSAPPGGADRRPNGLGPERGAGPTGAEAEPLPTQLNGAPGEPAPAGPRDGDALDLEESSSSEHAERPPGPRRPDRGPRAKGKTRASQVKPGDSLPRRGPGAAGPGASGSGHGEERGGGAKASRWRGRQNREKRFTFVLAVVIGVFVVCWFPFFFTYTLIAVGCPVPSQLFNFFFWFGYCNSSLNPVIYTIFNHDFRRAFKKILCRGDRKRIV
The assay can be described thus: α2-antagonism in vitro, isolated electrically stimulated mouse vas deferens (pA2 vs detomidine). The class given is cell-based. The note with it: antagonist given prior to agonist detomidine. The protocol: The α2 -antagonism of these compounds was determined in vitro using the isolated, electrically stimulated mouse vas deferens preparation (Marshall et al., Br. J. Pharmac. 62, 147, 151, 1978). In this model, an α2 -agonist (detomidine) blocks electrically stimulated muscular contractions and the effect of the α2 -antagonist is seen by administering it prior to the agonist and by determining its pA2 value.
Compound mouse vas deferens

The target in assay [2] is T2, α2-receptors of the central nervous system (Rattus norvegicus, UniProt P22909).
T2 construct: from tissue; host or cells: living anaesthetized rat, central nervous system
T2 sequence (P22909 1-465): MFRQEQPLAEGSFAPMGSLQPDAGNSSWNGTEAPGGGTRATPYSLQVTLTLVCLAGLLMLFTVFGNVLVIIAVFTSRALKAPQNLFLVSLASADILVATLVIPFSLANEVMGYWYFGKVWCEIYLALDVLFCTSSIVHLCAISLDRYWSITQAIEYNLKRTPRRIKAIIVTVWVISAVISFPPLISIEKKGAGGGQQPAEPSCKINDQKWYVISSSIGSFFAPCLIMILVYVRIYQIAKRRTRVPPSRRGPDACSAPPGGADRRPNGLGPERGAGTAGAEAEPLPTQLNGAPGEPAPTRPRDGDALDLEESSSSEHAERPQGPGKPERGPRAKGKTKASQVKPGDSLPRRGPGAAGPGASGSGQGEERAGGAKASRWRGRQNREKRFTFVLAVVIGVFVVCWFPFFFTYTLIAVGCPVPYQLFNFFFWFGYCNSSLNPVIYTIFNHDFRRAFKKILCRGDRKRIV
The assay can be described thus: central α2-blocking effect in vivo: reversal of detomidine-induced mydriasis in anaesthetized rat. The note with it: iv, standard dose of detomidine i.v., then increasing i.v. doses of antagonist, read-out: ED50, dose producing a 50 percent reversal of detomidine-induced mydriasis. The protocol:
The central α2 -blocking effect of the compounds of the invention in vivo was studied. It is known that in the rat α2 -agonists induce dilation of the pupil (mydriasis) and that this effect is transmitted via α2 -receptors of the central nervous system. In an anaesthetized rat, a standard dose of detomidine was administered intravenously. Thereafter increasing doses of the antagonist under test were injected intravenously and the reversal of detomidine-induced mydriasis was observed. The ED50 value of the antagonist, i.e. the dose producing a 50 percent reversal, was determined.

The subject of assay [3] is α2-receptors. Particulars: Virtanen et al., 1983; cited from earlier work.

The molecule `CC(C)C1(c2cnc[nH]2)Cc2ccccc2C1` [Compound III, 4(5)-(2,3-dihydro-2-isopropyl-1H-inden-2-yl)imidazole] gave a Kb in assay [1] of 398 nM.

In assay [1], `C=CC1(c2cnc[nH]2)Cc2ccccc2C1` [Compound IV, 4(5)-(2,3-dihydro-2-vinyl-1H-inden-2-yl)imidazole] gave a Kb of 25.1 nM.

Regarding `CC=C1c2ccccc2CC1(C)c1cnc[nH]1` (stereo not shown) [Compound VI, 4(5)-(2,3-dihydro-1-ethylidene-2-methyl-1H-inden-2-yl)-imidazole], the ED50 in assay [2] came to 0.001 mg/kg.

For `C=C(C)C1(c2cnc[nH]2)Cc2ccccc2C1` [Compound II, 4(5)-(2,3-dihydro-2-isopropenyl-1H-inden-2-yl)imidazole], the Kb in assay [1] is 100 nM. In other words, the sub-micromolar range.

In the case of `Cc1cccc(Cc2c[nH]cn2)c1C` [detomidine], in assay [3], the “α2-receptor stimulation responsible for primary pharmacodynamic effects, e.g. sedation (in words)” value is “ability to stimulate α2 -receptors”.

Turning to `C=C1c2ccccc2CC1(C)c1cnc[nH]1` (stereo not shown) [Compound V, 4(5)-(2,3-dihydro-2-methyl-1-methylene-1H-inden-2-yl)-imidazole], in assay [2], the 50% effective dose (ED50) turned out to be 0.03 mg/kg.

`CC(C)(O)C1(c2cnc[nH]2)Cc2ccccc2C1` [Compound I, 2-[2,3-dihydro-2-[imidazol-4(5)-yl]-1H-inden-2-yl]-2-propanol]: the antagonist equilibrium constant (Kb) in assay [1] is 3980 nM.

What is called Kb is the affinity of an antagonist, worked out from how it opposes an agonist. Read a high Kb as a less potent antagonist. In general, ED50 refers to the midpoint of the dose-response relation.
